{"source": "paper PMC12775124", "about": "“CUL4A-DDB1-DCAF10 is an N-recognin for N-terminally acetylated Src kinases” (Nature Communications, 2026)", "key": {"DCAF10": {"tested_on": "DCAF10", "assay": "Peptide pull-down with quantitative MS, HeLa lysate, DCAF10", "assay_type": "binding, human (HeLa)", "details": "for DCAF10 binding of swap peptide vs its WT (in words): direct comparisons Ac-Lyn vs Ac-Lyn^swap and Ac-THOC7 vs Ac-THOC7^swap", "protocol": "Beads presenting 10-residue synthetic Nt-peptides of proteins of interest in their free (Nt-free) or modified (e.g., Nt-acetylated) versions were incubated with lysates from HeLa cells, followed by MS-based quantification of retained binders (Fig. 1a).\nBiotinylated 10-mer Nt-peptides (Nt-free, Nt-acetylated, and, where indicated, Nt-myristoylated; sequences in Supplementary Table 1) were synthesized with a C-terminal Lys3 spacer and biotin, immobilized on magnetic streptavidin beads, and incubated with HeLa or mouse liver lysates. After standardized washes, bound proteins were on-bead reduced/alkylated, digested with LysC/trypsin, desalted, and analysed by LC-MS in DIA mode (Orbitrap Exploris 480) as described previously[24]. Variants included endogenous Nt-sequences, swap and mutant (Ala-Ala-Ala or Nt-amino acids) peptides, and pairwise comparisons of conditions of interest.\nAll MS experiments were performed as independent biological triplicates. Relative protein quantification was carried out using the label-free algorithm integrated in DIA-NN[53], and statistical testing was performed in Perseus using a two-sided Student’s t test with permutation-based multiple-testing-adjusted p-values[53],[54], as specified in the figure legends. […] Volcano blots were visualized with RStudio (version 2023.06.0). […] Cell experiments were performed as biological replicates, and binding assays as independent assays. […] Data are presented as mean ± s.d. Fold changes are reported as the ratio of the normalized value for the condition of interest to the normalized control value, with mean ± s.d. computed across biological replicates."}, "GST-DCAF10": {"tested_on": "GST-DCAF10", "assay": "Streptavidin pull-down of GST-DCAF10 with biotinylated Nt-peptides", "assay_type": "binding, human", "details": "0.5 µM GST-DCAF10, 5 µM peptide, 1 h RT; WB; listed as Nt-acetylated Fyn", "experimental": "To confirm direct interactions between peptides and DCAF10, we performed pull-down assays using bead-bound Nt-peptide variants incubated with purified full-length GST-DCAF10 or GST as a negative control (Fig. 2m–p and Supplementary Fig. 4a).\n230 of 1:100), and desalted/concentrated on C18 reversed phase stage tips as previously\nMS measurements settings are stated in MS measurements and raw file\nBL21(DE3) cells (Thermo Fisher Scientific,\n240 agar) plate containing 100 μg/mL ampicillin and 34 μg/mL chloramphenicol, then\nTerrific broth (TB) medium (24 g/L yeast extract,\n243 20 g/L tryptone, glycerol 4 mL/L, 100 mL/L phosphate buffer containing 0.17 M KH2PO4\n244 and 0.72 M K2HPO4) was used to prepare a 1:100 dilution of the starter culture, and OD600\nAt OD600 = 1, protein induction was initiated by adding 1 mM\n247 day, pellets were homogenized and lysed in glycerol lysis buffer (20 mM Tris-HCl pH\nLysis was performed on ice for 30 min, followed by\n250 sonication (7 × 20 sec pulses with 20 sec breaks on ice) using a Bandelin sonoplus\nLysates were centrifuged at 4°C for 1 h\n253 medium culture was lysed in 20 mL of supernatant (collected in 20 × 1 mL tubes). GST\n255 agarose bead; Thermo Fisher Scientific, Waltham, MA, USA). For each 1 mL of\n100 μL of GST magnetic beads\n257 were washed twice with 500 μL of wash buffer (125 mM Tris-HCl pH 7.4, 150 mM NaCl,\nThe lysis supernatant was diluted 1:1 with\n259 wash buffer, and incubated with the beads on an end-over-end rotator for 1 h at 25°C.\n260 After incubation, the supernatant was removed, and the beads were washed twice with\nProtein elution was then performed by incubating\n263 pH 7.4, 250 mM NaCl, 0.3% Triton X-100) for 30 min at 25°C on an end-over-end rotator.\n265 under the same conditions. Elution fractions were pooled and concentrated by\n266 centrifugation (4°C, 25 min, 4500 rpm) using a 30 kDa cut-off concentrator (Merck\n267 Millipore, #UFC803008, Darmstadt, Germany). Purified proteins were analyzed by\n268 colloidal Coomassie stain, WB and MS.\n270 Streptavidin pull-downs with GST-DCAF10 and biotinylated peptides\n271 Streptavidin magnetic beads (DynabeadsTM MyOneTM Streptavidin T1; Thermo Fisher\n272 Scientific, Waltham, MA, USA) were washed twice with 500 μL of wash buffer (125 mM\n273 Tris-HCl pH 7.4, 150 mM NaCl, 0.1% Triton X-100). An excess of peptides was added\n274 (to ensure full occupancy of the beads) and incubated for 30 min at RT. After peptide\n275 binding, beads were again washed three times with 500 μL of wash buffer. The pull-down\n276 was then performed in a 100 μL reaction volume with final concentrations of 0.5 µM\n277 GST-DCAF10 and 5 µM peptide. GST-DCAF10 or GST alone (as a control) was added\n278 to the peptide-streptavidin beads and incubated on a rotator for 1 h at RT. After incubation,\n279 the beads were washed three times with 500 μL of wash buffer and resuspended in 4x\n280 Laemmli buffer. 1/5 of the input (GST-DCAF10 and GST) and 9/10 of the sample were\n281 loaded on a 10% SDS gel and blotted with anti-GST and anti-DCAF10 antibodies, while\n282 1/10 was loaded on a 15% SDS gel and blotted with anti-streptavidin antibody to assess\n283 equal peptide loading.\n285 Streptavidin Sepharose High Performance, GE Healthcare, Chicago, IL, USA) were used.\n286 After washing with a high salt wash buffer without detergents (125 mM Tris-HCl pH 7.4,\n287 400 mM NaCl), an excess of peptides was added and incubated for 30 min at RT. For each\n288 reaction, 10 µL of slurry beads were used. After peptide-binding, beads were again\n289 washed once with a high salt wash buffer without detergents and twice with binding buffer\n290 without detergents (125 mM Tris-HCl pH 7.4, 150 mM NaCl). The pull-downs were\n291 performed in a 100 μL reaction volume in binding buffer without detergents with a final\n292 concentration of 0.5 µM GST-DCAF10 and incubated rotating for 1 h at RT. After\n293 incubation, the beads were washed five times with 500 μL of high salt wash buffer without […]"}}, "data": [{"sequence": "GAVKSKEVIRKK [Ac-THOC7^swap, THOC7 peptide carrying Lys5-Ser6-Lys7 of Lyn]", "values": [{"measurement": "Reversal of preference after swapping positions 5–7", "setting": "DCAF10; Ac-Lyn^swap vs Ac-THOC7^swap relative to WT comparison", "value": "~ 133 fold"}, {"measurement": "DCAF10 binding of swap peptide vs its WT (in words)", "setting": "DCAF10; HeLa lysate", "value": "increased binding"}]}, {"sequence": "GCVQCKDKEAKK [Ac-Fyn, Nt-peptide of Fyn, Nt-acetylated]", "values": [{"measurement": "DCAF10 binding, Nt-Ac vs Nt-Myr (in words)", "setting": "DCAF10; HeLa lysate", "value": "DCAF10 selectively recognizes the acetylated form"}, {"measurement": "DCAF10 binding (in words)", "setting": "DCAF10; HeLa lysate, Nt-Ac vs Nt-free peptides", "value": "bound to DCAF10"}, {"measurement": "Binding to GST-DCAF10 (in words)", "setting": "GST-DCAF10", "value": "bound robustly to GST-DCAF10"}]}, {"sequence": "GCIAAAGKDSKK [Ac-Lyn^AAA, Ala5-Ala6-Ala7 mutant of Lyn peptide]", "values": [{"measurement": "log₂ difference, Ac-Lyn^WT vs Ac-Lyn^AAA, DCAF10", "setting": "DCAF10; HeLa lysate, n = 3", "value": "−0.41"}]}, {"sequence": "ACIKSKGKDSKK [Ac-Lyn^G2A, Ac-Ala mutant Nt-peptide of Lyn]", "values": [{"measurement": "DCAF10 interaction, fold lower relative to Ac-Gly peptide", "setting": "DCAF10; Ac-Ala (Ac-Lyn^G2A) vs Ac-Gly (Ac-Lyn^WT), HeLa lysate", "value": 15, "unit": "fold"}, {"measurement": "DCAF10 binding of Nt-mutant peptides (in words)", "setting": "DCAF10; n = 3 replicates", "value": "only identified in 2 of 3 replicates"}]}, {"sequence": "GCITDDGKDSKK [Ac-Lyn^swap, Lyn peptide carrying Thr5-Asp6-Asp7 of THOC7]", "values": [{"measurement": "log₂ difference Ac-Lyn^swap vs Ac-THOC7^swap, DCAF10", "setting": "DCAF10; HeLa lysate, n = 3", "value": "−1.23"}, {"measurement": "DCAF10 binding of swap peptide vs its WT (in words)", "setting": "DCAF10; HeLa lysate", "value": "significantly reduced"}]}]}
